The term melting point denotes the temperature, or range, at which the solid turns liquid. For `CCOc1cc2c(Cl)ncnc2cc1OC(C)C`, the melting point was 104 to 106 °C.

`O=c1cc(-c2ccc(OCCOCCOCCOc3ccc(-c4cc(=O)c5c(O)cc(O)cc5o4)cc3)cc2)oc2cc(O)cc(O)c12` gave a melting point of 143 to 145 °C.

Take `Cc1ccc(S(=O)(=O)Oc2cccc(NC(=O)NS(=O)(=O)c3ccccc3)c2)cc1`: the melting point fell in the range of 162 to 170 °C.

With `CC1(CCc2ccc(O)c(C(C)(C)C)c2)NC(=O)NC1=O` (stereo not given), the melting point was found to be 246 °C.

Regarding `O=C(O)c1ccc(Cl)c2c1CCNCC2`, the melting point lay within 144 to 149 °C.

In turn, `CCC(O)(CC)C1(c2onc(-c3ccc(O)cc3)c2-c2ccccc2)CC1` gave a melting point of 118 to 119 °C.

`CCCc1nn(C)c2c(=O)n(CCOc3ccc(SC(C)(C)C(=O)OCC)cc3)c(C)nc12` showed a melting point of 106 to 108 °C.

For `CC(C)(C)OC(=O)Nc1cc(N2CC3OC(C)(C)OC3C2)c(-c2ccc(F)cc2)cc1[N+](=O)[O-]` (stereo not given), the melting point is 119 °C.

With `O=C1NC(=O)c2c1c(-c1ccccc1Cl)cc1oc3cc(OCCCN4CCCC4)c(O)cc3c21`, the melting point fell in the range of 302 to 304 °C.

On to `CS(=O)c1nccc(-c2cn(Cc3ccccc3C#N)c(=O)n2-c2ccc(F)cc2)n1` (stereo not given), for which the melting point lay within 133 to 136 °C.

For `CC(C)P1(=O)c2ccccc2CN1C(C)(C)C` (stereo not given), the melting point was 67 to 70 °C.

In the case of `COc1ccc(CCNC(=O)c2ccc3n2Cc2ccccc2N(C(=O)c2ccc(-c4ccccc4C)c(C)c2)C3)cc1`, the melting point is 170 to 172 °C.

The compound `COC(=O)c1snc(-c2ccc([N+](=O)[O-])cc2)c1C(=O)OC` displayed a melting point of 142 to 143 °C.

On to `CCCOc1ccc(-c2ccc3c(c2)C(C)(C)CCC3(C)C)cc1-c1ccc(C(=O)O)cc1`, for which the melting point was in the range of 199 to 204 °C.

With `COc1cc(N)c(Cl)cc1C(=O)N[C@@H]1CCN(CCCOc2ccc(F)cc2)C[C@H]1F` (relative stereo), the melting point turned out to be 125 °C.

In turn, `CO[C@@H]1CNCC[C@@H]1NC(=O)c1cc(Cl)c(N)c2c1OC(C)(C)C2` (relative stereo) displayed a melting point of 179 °C.

Regarding `O=c1cc(-c2ccccc2)oc2cccc(F)c12`, the melting point was in the range of 144 to 145 °C.

In the case of `CCn1nc2c(N)nc3ccccc3c2c1CC1(O)CCN(S(C)(=O)=O)CC1`, the melting point lay within 268 to 270 °C.

On to `CCCCCCCCC(C)C(N)=O` (stereo not given), for which the melting point lay in the range of 80 to 81 °C.

The compound `COc1ccc(N(CCCC(=O)O)C(=O)C(C)N(C(=O)c2ccc(Cl)cc2Cl)c2ccc(OC)cc2)cc1` (stereo not given) had a melting point of 159 to 160 °C.

In turn, `COc1ccc(C2C3=C(COC3=O)Nc3ccc4cc(C)[nH]c4c32)c(F)c1` (stereo not given) displayed a melting point of 205 to 207 °C.

In turn, `CC[C@]12CC[C@H]3[C@@H](CC(C)C4=CC(=O)CC[C@@H]43)[C@@H]1CCC2=O` (stereo not given in full) came in with a melting point of 141 to 149 °C.

As for `CC(=O)N1CCN(N=Cc2ccc(F)cc2)CC1`, the melting point fell in the range of 88 to 90 °C.

Compound `N#Cc1cc[nH]c1-c1ccc(Cl)cc1` returned a melting point of 165 to 166 °C.

On to `O=C(Nc1ccc(F)cc1)NN1CCN(C(=O)Cn2c(=O)sc3ccc(Cl)cc32)CC1`, for which the melting point is more than 250 °C.

On to `Cn1nc2cccc(Cl)c2c1S(N)(=O)=O`, for which the melting point was 173 to 175 °C.

In turn, `CCCCNC(=NC#N)Nc1cccnc1` displayed a melting point of 96 to 97 °C.

`O=C1c2cc(C(F)(F)F)c(C(F)(F)F)cc2C(=O)c2cc3ccccc3cc21` yielded a melting point of more than 280 °C.

The compound `Cc1c(NC(=O)c2ccc(-c3ccc(OC(F)(F)F)cc3)cc2F)ccc2cc(CN3CCCC3)cnc12` returned a melting point of 175 to 178 °C.

Regarding `CC(=O)c1ccc(OCCN2CCN(c3cc(Cl)nnc3Cl)CC2)cc1`, the melting point lay within 115 to 117 °C.

As for `Cc1ccc(C(=O)N2CCCC(c3ccc(Cl)cc3)=N2)cc1`, the melting point is 163 to 166 °C.

`N#CCc1ccc2c(c1)Cc1cccnc1O2` showed a melting point of 166 to 167 °C.

In turn, `COC(=O)[C@H]1C[C@H](NC(=O)Nc2ccc(I)cc2)c2c(Cl)cc(Cl)cc2N1` (relative stereo) showed a melting point of 253 to 255 °C.

In turn, `CC1(C)CON(Cc2ccc(NC(=O)C3CC3)cc2Cl)C1=O` gave a melting point of 191 to 193 °C.

`Cc1nc(Cn2nc(C(F)(F)F)cc2C(F)(F)F)ccc1NC(=O)c1cccc(Cl)c1C(=O)N[C@@H](C)CS(C)=O` (stereo not given in full) came in with a melting point of 183 °C.

`Cn1ncnc1COc1nc2c(cc1CC(C)(C)C)nnn2-c1ccccc1F` registered a melting point of 130 to 133 °C.

As for `CCCc1c(OCCCS(=O)(=O)c2ccc(C(=O)NCC(=O)OCC)cc2)ccc(C(C)=O)c1O`, the melting point lay within 138 to 140 °C.

For the compound `Cn1cc(-c2cccc(Cl)c2)c(=O)c(-c2cccc(C(F)(F)F)c2)c1`, the melting point was 133 to 135 °C.

In turn, `CC(=O)NC1CCC(CNc2nc3c(s2)CCOc2ccccc2-3)CC1` (stereo not given) had a melting point of 69 to 72 °C.

`COc1cc(Br)c(/C=C/c2cc(/C=C/c3ccc4cc[nH]c4c3)[nH]n2)cc1O`: the melting point was in the range of 137 to 142 °C.

Consider `CCOc1cccnc1CSCCNC(=C[N+](=O)[O-])NC`, for which the melting point was in the range of 130 to 131 °C.

Turning to `O=C1[C@H]2CCC[C@H]2Nc2ccccc2N1Cc1cccc([N+](=O)[O-])c1` (relative stereo), the melting point lay within 169 to 171 °C.

In turn, `Cc1oc(-c2ccccc2)nc1COc1ccc2cc(CCCC3OC(=O)NC3=O)oc2c1` (stereo not given) gave a melting point of 159 to 160 °C.

The compound `CC12CCC3C(CC=C4CC(O[Si](C)(C)C(C)(C)C)CCC43C)C1CCC2=O` (stereo not given) registered a melting point of 146 to 148 °C.

`CC(=S)Nc1ccc(-c2nc3ccccc3o2)cc1` yielded a melting point of 212 to 214 °C.

Regarding `Cc1cc(C2(C(F)(F)C(F)(F)C(F)(F)F)CC(c3ccc(Cl)cc3)=NO2)ccc1NC(=O)c1cccc(I)c1C(=O)NC(C)C` (stereo not given), the melting point fell in the range of 156 to 158 °C.

With `COCCOc1ccc(COC(=O)NS(=O)(=O)NCC2CC2)c(Oc2ncc(C(F)(F)F)cc2Cl)c1`, the melting point was found to be 150 °C.

The compound `CC(C)(C)c1cc(CCc2ccccc2NC(=O)NCc2ccncc2)cc(C(C)(C)C)c1O` showed a melting point of 214 to 215 °C.

`COC(=O)CCn1cc(Cc2cccnc2)c2c(CCC(=O)OC(C)(C)C)cccc21` had a melting point of 80 to 82 °C.

As for `COc1ccc(Cn2c(=O)oc(=O)c3ccccc32)cc1`, the melting point was found to be 143 °C.

Consider `COCCNc1c(S(=O)(=O)C(F)(F)F)c(C#N)nn1-c1c(Cl)cc(C(F)(F)F)cc1Cl`, for which the melting point came to 164 °C.

Consider `[O-][N+](O)=Cc1ccc(Cl)cc1`, for which the melting point fell in the range of 151 to 153 °C.

Compound `Cn1cc(C(=O)NCc2ccc(Cl)cc2)c(=O)c2cc(I)ccc21` had a melting point of 205 to 208 °C.

As to `O=c1ncn(Cc2ccc(Cl)cc2)c2cc(-c3ccc(OCc4ccccn4)cc3)sc12`, the melting point fell in the range of 257 to 259 °C.

In the case of `O=c1[nH]c2cscc2c(=O)n1CCN1CCN(c2ccc(Cl)cc2)CC1`, the melting point was more than 250 °C.

For the compound `CSc1ccc2c(c1)NC(=O)C2`, the melting point was in the range of 179 to 180 °C.

As to `CCCC1(C)C(C#N)C(=O)NC(=O)C1C#N` (stereo not given), the melting point lay in the range of 204 to 205 °C.

For the compound `O=C(NO)c1ccc(CNC(=O)c2[nH]c(-c3ccccc3)cc2-c2cccc(Br)c2)cc1`, the melting point was 145 to 146 °C.

Consider `CC(C)=NNc1cc2c(nn1)CCN(C(=O)c1ccc(Cl)cc1)C2`, for which the melting point lay in the range of 221 to 223 °C.

On to `COc1ccc(CN2C(=O)[C@H](NC(=O)COc3ccccc3)[C@@H]2c2ccccc2C2OCCO2)c(OC)c1` (relative stereo), for which the melting point lay within 137 to 138 °C.

As to `COc1ccc([N+](=O)[O-])cc1OC(F)F`, the melting point fell in the range of 48 to 49 °C.

Regarding `CCCc1cc(Cl)c2oc(Cc3ccc(OC)cc3)c(C)c2c1OC(C)=O`, the melting point lay in the range of 119 to 120 °C.

Consider `Cc1ccnc(CSc2nc(C)cc(=O)[nH]2)c1`, for which the melting point was in the range of 157 to 158 °C.

In turn, `O=c1ccc(-c2ccc([N+](=O)[O-])c(C(F)(F)F)c2)n[nH]1` came in with a melting point of 238 to 241 °C.

In turn, `CC(C)(C)OC(=O)N1CC[C@@H](CN(Cc2ccccc2)Cc2ccccc2)[C@H](O)C1` (relative stereo) displayed a melting point of 133 °C.

Consider `CCOC(=O)/C=C/c1nc(COc2ccc(CO)cc2OC)c(C)o1`, for which the melting point lay within 96 to 97 °C.

The compound `Fc1ccc(C(CCCN2CCC(c3n[nH]c4ccccc34)CC2)c2ccc(F)cc2)cc1` registered a melting point of 154 to 156 °C.

`Clc1ccc(SC(CCc2ccccc2)Cn2ccnc2)cc1Cl` (stereo not given) came in with a melting point of 145 to 147 °C.

`Cn1cc(C2=C(c3cn(CCCS)c4ccccc34)C(=O)NC2=O)c2ccccc21` came in with a melting point of 155 to 157 °C.

As for `O=C(O)CN1CCN2c3ccccc3Cn3cccc3C2C1` (stereo not given), the melting point was in the range of 249 to 250 °C.

As to `CCCn1cnc(C(N)=O)c1N`, the melting point is 241 to 243 °C.

Compound `CCc1c(Cc2[nH]c(C=O)c(C)c2CCCOC(C)=O)[nH]c(Cc2[nH]c(C=O)c(C)c2CCCOC(C)=O)c1CC` gave a melting point of 179 to 181 °C.

The compound `Cn1cc(C#N)c(=O)c2cc3cc(F)c(F)cc3nc21` registered a melting point of 380 °C.

`COC(=O)C1Cc2c([nH]c3ccccc23)C(c2cccc(Cl)c2)N1` (stereo not given) registered a melting point of 150 to 160 °C.

`CCOC(=O)CCCCCn1c(-c2ccccc2)c(-c2ccccc2)n(-c2ccccc2)c1=O` showed a melting point of 104 to 106 °C.

`O=C(CBr)Nc1cccc(OC(=O)CBr)c1`: the melting point lay in the range of 96 to 98 °C.

Consider `CCn1ncc2c(O)c(CCc3ccccc3)c(C)nc21`, for which the melting point lay within 251 to 256 °C.

In turn, `CCN(CC)CCOc1ccc2[nH]c3c([N+](=O)[O-])ccc(Cl)c3c(=O)c2c1` had a melting point of 148 to 151 °C.

As to `CCNC(=O)C1=CSC(Cl)N1[Si](C)(C)C` (stereo not given), the melting point was in the range of 101 to 103 °C.

The compound `O=C(C(=O)c1ccc(F)cc1)c1ccncc1` returned a melting point of 84 to 86 °C.

On to `COC(=O)c1cc(CCl)ccc1OCc1nc(-c2ccco2)oc1C`, for which the melting point lay in the range of 107 to 108 °C.

In turn, `CC(C)(C)OC(=O)NC(Cc1ccccc1)C1CC(Cc2ccccc2)=NO1` (stereo not given) showed a melting point of 106 to 107 °C.

In the case of `COc1c(C=O)cc(Cl)c(Cl)c1OC`, the melting point lay in the range of 75 to 77 °C.

The compound `O=C(O)C=Cc1ccc(NC(=O)CCCCCNC(=O)OCc2ccccc2)cc1` registered a melting point of 142 to 144 °C.

The compound `CN(C)C1CCCCC1Oc1ccc(Cc2c(-c3ccc(OCCN4CCCC4)cc3)sc3cc(O)ccc23)cc1` (stereo not given) came in with a melting point of 95 to 98 °C.
